The record followed here is patent publication US6596723B1, “Fungal efflux pump inhibitors” (Essential Therapeutics, Inc., priority 2001, dated 2003).

Assay [1] deals with clinical isolates of C. tropicalis. The assay can be described thus: potentiation of fluconazole vs. clinical isolates of C. tropicalis. In kind it is cell-based. Particulars: for MIC50 / MIC90: Candida tropicalis.
Assay [2] relates to clinical isolates of C. krusei. Kind of assay: potentiation of fluconazole vs. clinical isolates of C. krusei. In kind it is cell-based. To be noted: Pichia kudriavzevii.
Assay [3] relates to clinical isolates of C. parapsilosis. Kind of assay: potentiation of fluconazole vs. clinical isolates of C. parapsilosis. It counts as cell-based. Particulars: Lodderomyces parapsilosis.
Assay [4] relates to A. fumigatus. Kind of assay: potentiation of Posaconazole vs. A. fumigatus. In kind it is cell-based, Aspergillus fumigatus. Particulars: 15 strains.
Setting [5] is: fluconazole MIC with FEPI at 16-32 μg/ml, C. tropicalis clinical isolates, read-out: MIC90 Flu + FEPI.
Setting [6] is: fluconazole MIC with FEPI at 16-32 μg/ml, C. krusei clinical isolates, read-out: MIC50 Flu + FEPI.
Where [7] appears, read: fluconazole MIC with FEPI at 16-32 μg/ml, C. krusei clinical isolates, read-out: MIC90 Flu + FEPI.
[8] abbreviates: fluconazole MIC with FEPI at 16-32 μg/ml, read-out: MIC50 Flu + FEPI.
The mark [9] stands for this setting: fluconazole MIC with FEPI at 16-32 μg/ml, read-out: MIC90 Flu + FEPI.

For orientation: MIC50 means the lowest concentration that inhibits either 50% of growth or 50% of the strains tested, depending on the study. Usually MIC90 stands for the lowest concentration that inhibits either 90% of growth or 90% of the strains tested, depending on the study. As a reminder, the MIC is the lowest concentration found to suppress growth.

Like-named read-outs stand apart in the source and are kept apart here.

In the case of `COc1ccc(N(C(=O)Nc2cccc(Cl)c2)C(C)c2nc3ccccc3c(=O)n2N2CCN(C)CC2)c(OC)c1` (stereo not drawn) [Compound 1, 3-(3-Chloro-phenyl)-1-(2,4-dimethoxy-phenyl)-1-{1-[3-(4-methyl-piperazin-1-yl)-4-oxo-3,4-dihydro-quinazolin-2-yl]-ethyl}-urea], the MIC50 was 0.125 µg/mL in assay [1] (fluconazole MIC with FEPI at 16-32 μg/ml, […], read-out: MIC50 Flu + FEPI); 32 µg/mL in assay [2] (setting [6]); below 0.03 µg/mL in assay [3] (setting [8]). Besides, the results for the MIC90 in assay [1] (setting [5]), in assay [2] (setting [7]) and in assay [3] (setting [9]) were 2 µg/mL, above 32 µg/mL and 0.25 µg/mL, respectively. For the same compound, the MPC8 in assay [4] (concentration of efflux pump inhibitor to reduce MIC of Posaconazole 8-fold) was in the range of 8 to 32 µg/mL. Moreover, the MIC in assay [4] (Aspergillus fumigatus, footnote: minimum inhibitor concentration of Posaconazole alone to achieve 80% inhibition) is above 32 µg/mL.
As for `COc1ccc(N(C(=O)Nc2cccc(Cl)c2)C(C)c2nc3ccccc3c(=O)n2N2CCN(CCO)CC2)c(OC)c1` (stereo not drawn) [Compound 3, 3-(3-Chloro-phenyl)-1-(2,4-dimethoxy-phenyl)-1-(1-{3-[4-(2-hydroxy-ethyl)-piperazin-1-yl]-4-oxo-3,4-dihydro-quinazolin-2-yl}-ethyl)-urea], the MIC50 is 0.25 µg/mL in assay [1] (fluconazole MIC with FEPI at 16-32 μg/ml, C. tropicalis clinical isolates, read-out: MIC50 Flu + FEPI); above 32 µg/mL in assay [2] (setting [6]); below 0.03 µg/mL in assay [3] (setting [8]). Moreover, the MIC90 in assay [1] (setting [5]) was 8 µg/mL; in assay [2] (setting [7]), above 32 µg/mL; in assay [3] (setting [9]), 0.5 µg/mL.
As to `OC(Cn1cncn1)(Cn1cncn1)c1ccc(F)cc1F` [fluconazole, reference compound], the MIC50 in assay [1] (read-out: MIC50 Flu only) is above 128 µg/mL; in assay [2] (fluconazole alone, C. krusei clinical isolates, read-out: MIC50 Flu only) it was 64 µg/mL; in assay [3] (fluconazole alone, read-out: MIC50 Flu only), 1 µg/mL. Moreover, the MIC90 in assay [1] (read-out: MIC90 Flu only) is above 128 µg/mL; in assay [2] (read-out: MIC90 Flu only) it was above 128 µg/mL; in assay [3] (fluconazole alone, read-out: MIC90 Flu only) it was 4 µg/mL. Moreover, the “MIC50 Flu only” value in assay [1] (listed as Flu) was 128 µg/mL.
